Key:
rat limbic system = details: pretreatment of rats, systemic kainic acid seizure; cited from earlier work
[1] = test system: mechanical hyperalgesia of the affected hind paw; experiment: Mechanical hyperalgesia (von Frey foot withdrawal) after L5 spinal nerve ligation; assay type: in vivo; details: SNL mice, PBN 150 mg/kg i.p. or 100 μg i.t.
Protocol: Inhibition of neuron death using one of the anti-oxidant agents described above is examined in a spinal injury model as described below. The oxidation inhibitor used is phenyl-N-tert-butylnitrone, a ROS scavenger. Peripheral nerve injury is induced by tightly ligating the L5 spinal nerve under isoflurane anesthesia (2% induction and 1.5% maintenance). Seven days after SNL, mice are randomly divided into treatment and control groups. Mice belonging to one treatment group are injected by one of two different routes with phenyl-N-tert-butylnitrone, PBN (Sigma, St. Louis, Mo.). Doses of PBN used are 150 mg/kg (i.p., 0.1 ml) or 100 μg (i.t., 5 μl), dissolved in saline at a concentration of 20 mg/ml. Mice in the control groups are treated with the same volume of saline. […]
Pain behavior is tested by assessing mechanical hyperalgesia of the affected hind paw. […] Mechanical hyperalgesia of the hind paw is measured by determining the frequency of foot withdrawals to 10 stimuli applied with a von Frey (vF) filament (Stoelting, Wood Dale, Ill.). […] Response rates are calculated as a percentage of the number of positive responses/10 stimuli.

GABA neurons = experiment: Whole-cell patch recording in lumbar spinal cord slices; assay type: cell-based, mouse; details: spinal cord slices of PBN treated mice

| SMILES | activator protein-1- and NF-kB-binding activity (rat limbic system) | increased protein nitration (rat limbic system) | neuronal damage resulting from seizure activity in limbic structures (rat limbic system) | spectrin proteolysis (rat limbic system) | foot withdrawal to von Frey filament (pain behavior) [1] | action potential discharge (excitatory) pattern of surviving neurons (GABA neurons) | excitability and firing activity of GABA neurons (GABA neurons) |
| --- | --- | --- | --- | --- | --- | --- | --- |
| COc1cccc(C=NCCN=Cc2cccc(OC)c2[O-])c1[O-].[Cl-].[Mn+3] [EUK-134] | reduction | reduction | reduction | reduction |  |  |  |
| CC(C)(C)[N+]([O-])=Cc1ccccc1 [PBN, phenyl-N-tert-butylnitrone] |  |  |  |  | withdraw their foot less abruptly | superior action potential discharge (excitatory) pattern | restore excitability and prevent suppression of firing activity |

Source: US11911504B2, “Apparatus and method for protecting neurons and reducing inflammation and scarring” (GALEN THERAPEUTICS LLC, priority 2018, dated 2024)
